What was measured:
Assay in all cases: selectivity, HiClamp system on oocytes
Type in all cases: cell-based
Conditions in all cases: 10 µM
[1] = biological target: T1, KV1.1 (Homo sapiens, UniProt Q09470)
T1 construct: expressed in transfected cells; host or cells: Xenopus laevis oocytes

[2] = biological target: T2, KV1.2 (Homo sapiens, UniProt P16389)
T2 construct: expressed in transfected cells; host or cells: Xenopus laevis oocytes

[3] = biological target: T3, KV1.4 (Homo sapiens, UniProt P22459)
T3 construct: expressed in transfected cells; host or cells: Xenopus laevis oocytes
T3 sequence (P22459 whole entry): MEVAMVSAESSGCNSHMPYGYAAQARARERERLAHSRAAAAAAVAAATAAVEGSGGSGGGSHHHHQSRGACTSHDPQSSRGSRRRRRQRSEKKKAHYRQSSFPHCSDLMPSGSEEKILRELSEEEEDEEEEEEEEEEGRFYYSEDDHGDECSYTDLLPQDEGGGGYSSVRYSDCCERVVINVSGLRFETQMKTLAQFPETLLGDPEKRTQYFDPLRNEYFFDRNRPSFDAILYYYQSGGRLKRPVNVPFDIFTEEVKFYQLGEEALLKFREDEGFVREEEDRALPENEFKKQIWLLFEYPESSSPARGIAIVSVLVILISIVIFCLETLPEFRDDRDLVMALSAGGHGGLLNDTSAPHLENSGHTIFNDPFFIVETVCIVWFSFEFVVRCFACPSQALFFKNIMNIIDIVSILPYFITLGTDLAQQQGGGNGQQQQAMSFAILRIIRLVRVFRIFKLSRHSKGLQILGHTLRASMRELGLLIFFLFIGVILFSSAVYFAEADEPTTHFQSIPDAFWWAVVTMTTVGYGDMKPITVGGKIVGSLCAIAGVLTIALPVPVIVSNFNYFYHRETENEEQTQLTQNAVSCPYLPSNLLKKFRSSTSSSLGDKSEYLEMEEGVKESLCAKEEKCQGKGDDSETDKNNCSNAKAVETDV

[4] = biological target: T4, KV1.5 (Homo sapiens, UniProt P22460)
T4 construct: expressed in transfected cells; host or cells: Xenopus laevis oocytes
T4 sequence (P22460 whole entry): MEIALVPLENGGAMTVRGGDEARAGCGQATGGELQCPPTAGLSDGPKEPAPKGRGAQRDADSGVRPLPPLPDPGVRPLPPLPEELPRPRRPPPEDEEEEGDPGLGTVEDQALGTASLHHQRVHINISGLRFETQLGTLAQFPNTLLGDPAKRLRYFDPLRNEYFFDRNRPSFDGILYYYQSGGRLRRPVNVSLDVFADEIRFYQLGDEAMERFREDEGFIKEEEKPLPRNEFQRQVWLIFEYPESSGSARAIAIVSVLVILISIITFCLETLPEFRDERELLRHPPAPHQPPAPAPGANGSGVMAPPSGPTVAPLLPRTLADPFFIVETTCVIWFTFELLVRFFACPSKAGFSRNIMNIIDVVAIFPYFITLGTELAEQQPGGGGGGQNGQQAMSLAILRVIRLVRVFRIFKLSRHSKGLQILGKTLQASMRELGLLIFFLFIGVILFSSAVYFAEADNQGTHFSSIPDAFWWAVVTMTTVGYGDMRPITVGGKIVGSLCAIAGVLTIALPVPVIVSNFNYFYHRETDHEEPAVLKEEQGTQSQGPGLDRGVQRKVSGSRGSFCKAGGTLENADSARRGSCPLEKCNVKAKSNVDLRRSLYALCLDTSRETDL

[5] = biological target: T5, KV1.6 (Homo sapiens, UniProt P17658)
T5 construct: expressed in transfected cells; host or cells: Xenopus laevis oocytes
T5 sequence (P17658 whole entry): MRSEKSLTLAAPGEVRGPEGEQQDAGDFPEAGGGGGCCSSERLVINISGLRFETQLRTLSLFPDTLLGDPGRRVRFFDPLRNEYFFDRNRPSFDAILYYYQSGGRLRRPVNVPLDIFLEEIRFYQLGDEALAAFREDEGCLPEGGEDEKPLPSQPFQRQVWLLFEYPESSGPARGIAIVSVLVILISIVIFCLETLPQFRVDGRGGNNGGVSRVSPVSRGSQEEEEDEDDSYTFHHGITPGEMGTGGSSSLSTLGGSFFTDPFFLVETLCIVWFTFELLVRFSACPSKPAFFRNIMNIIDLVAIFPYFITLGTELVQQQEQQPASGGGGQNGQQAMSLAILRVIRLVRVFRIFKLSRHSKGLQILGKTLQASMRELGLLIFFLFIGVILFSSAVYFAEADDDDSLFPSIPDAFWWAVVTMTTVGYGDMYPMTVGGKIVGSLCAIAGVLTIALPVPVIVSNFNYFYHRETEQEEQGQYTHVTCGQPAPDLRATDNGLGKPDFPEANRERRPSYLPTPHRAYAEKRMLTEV

[6] = biological target: T6, KV2.1 (Homo sapiens, UniProt Q14721)
T6 construct: expressed in transfected cells; host or cells: Xenopus laevis oocytes
T6 sequence (Q14721 1-858): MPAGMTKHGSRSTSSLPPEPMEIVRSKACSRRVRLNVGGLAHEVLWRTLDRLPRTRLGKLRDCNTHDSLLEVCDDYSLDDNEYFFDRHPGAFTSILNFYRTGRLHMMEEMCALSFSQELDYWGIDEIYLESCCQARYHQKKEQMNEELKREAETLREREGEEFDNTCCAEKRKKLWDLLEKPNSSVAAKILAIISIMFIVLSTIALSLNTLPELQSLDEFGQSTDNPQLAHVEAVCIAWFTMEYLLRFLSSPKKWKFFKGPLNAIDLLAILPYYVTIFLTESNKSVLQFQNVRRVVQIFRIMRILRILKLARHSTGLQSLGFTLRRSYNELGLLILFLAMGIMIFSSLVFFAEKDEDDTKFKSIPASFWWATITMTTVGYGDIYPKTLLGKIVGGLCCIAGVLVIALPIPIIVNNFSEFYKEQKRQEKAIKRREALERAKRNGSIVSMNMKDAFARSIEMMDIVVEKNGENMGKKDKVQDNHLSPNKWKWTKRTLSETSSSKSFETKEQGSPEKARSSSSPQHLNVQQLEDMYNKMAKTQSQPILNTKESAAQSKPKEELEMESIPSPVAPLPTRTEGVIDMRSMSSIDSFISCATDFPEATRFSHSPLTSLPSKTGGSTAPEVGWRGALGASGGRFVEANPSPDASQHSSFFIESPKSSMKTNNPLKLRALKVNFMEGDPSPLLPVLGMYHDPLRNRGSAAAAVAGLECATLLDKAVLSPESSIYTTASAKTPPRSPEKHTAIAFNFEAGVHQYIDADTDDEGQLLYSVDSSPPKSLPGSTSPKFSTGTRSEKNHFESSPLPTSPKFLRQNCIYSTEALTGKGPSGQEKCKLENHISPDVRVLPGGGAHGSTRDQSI

[7] = biological target: T7, KV4.2 (Homo sapiens, UniProt Q9NZV8)
T7 construct: expressed in transfected cells; host or cells: Xenopus laevis oocytes
T7 sequence (Q9NZV8 1-630): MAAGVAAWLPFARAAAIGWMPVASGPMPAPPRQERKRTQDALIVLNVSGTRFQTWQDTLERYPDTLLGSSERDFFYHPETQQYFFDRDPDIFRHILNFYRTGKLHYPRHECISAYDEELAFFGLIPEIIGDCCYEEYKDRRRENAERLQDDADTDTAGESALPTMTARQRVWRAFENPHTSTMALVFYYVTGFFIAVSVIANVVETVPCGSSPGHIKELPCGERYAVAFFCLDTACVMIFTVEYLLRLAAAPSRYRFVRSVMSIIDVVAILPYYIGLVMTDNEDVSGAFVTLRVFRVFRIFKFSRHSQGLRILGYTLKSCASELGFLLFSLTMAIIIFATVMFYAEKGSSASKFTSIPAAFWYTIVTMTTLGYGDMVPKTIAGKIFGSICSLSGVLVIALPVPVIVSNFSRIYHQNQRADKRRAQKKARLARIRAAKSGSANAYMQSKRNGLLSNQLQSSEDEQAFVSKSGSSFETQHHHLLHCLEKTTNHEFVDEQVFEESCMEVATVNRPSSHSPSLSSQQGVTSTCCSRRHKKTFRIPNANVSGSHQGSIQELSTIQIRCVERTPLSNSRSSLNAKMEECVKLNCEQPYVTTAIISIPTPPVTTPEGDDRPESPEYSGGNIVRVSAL

[8] = biological target: T8, KV10.1 (Homo sapiens, UniProt O95259)
T8 construct: expressed in transfected cells; host or cells: Xenopus laevis oocytes
T8 sequence (O95259 1-989): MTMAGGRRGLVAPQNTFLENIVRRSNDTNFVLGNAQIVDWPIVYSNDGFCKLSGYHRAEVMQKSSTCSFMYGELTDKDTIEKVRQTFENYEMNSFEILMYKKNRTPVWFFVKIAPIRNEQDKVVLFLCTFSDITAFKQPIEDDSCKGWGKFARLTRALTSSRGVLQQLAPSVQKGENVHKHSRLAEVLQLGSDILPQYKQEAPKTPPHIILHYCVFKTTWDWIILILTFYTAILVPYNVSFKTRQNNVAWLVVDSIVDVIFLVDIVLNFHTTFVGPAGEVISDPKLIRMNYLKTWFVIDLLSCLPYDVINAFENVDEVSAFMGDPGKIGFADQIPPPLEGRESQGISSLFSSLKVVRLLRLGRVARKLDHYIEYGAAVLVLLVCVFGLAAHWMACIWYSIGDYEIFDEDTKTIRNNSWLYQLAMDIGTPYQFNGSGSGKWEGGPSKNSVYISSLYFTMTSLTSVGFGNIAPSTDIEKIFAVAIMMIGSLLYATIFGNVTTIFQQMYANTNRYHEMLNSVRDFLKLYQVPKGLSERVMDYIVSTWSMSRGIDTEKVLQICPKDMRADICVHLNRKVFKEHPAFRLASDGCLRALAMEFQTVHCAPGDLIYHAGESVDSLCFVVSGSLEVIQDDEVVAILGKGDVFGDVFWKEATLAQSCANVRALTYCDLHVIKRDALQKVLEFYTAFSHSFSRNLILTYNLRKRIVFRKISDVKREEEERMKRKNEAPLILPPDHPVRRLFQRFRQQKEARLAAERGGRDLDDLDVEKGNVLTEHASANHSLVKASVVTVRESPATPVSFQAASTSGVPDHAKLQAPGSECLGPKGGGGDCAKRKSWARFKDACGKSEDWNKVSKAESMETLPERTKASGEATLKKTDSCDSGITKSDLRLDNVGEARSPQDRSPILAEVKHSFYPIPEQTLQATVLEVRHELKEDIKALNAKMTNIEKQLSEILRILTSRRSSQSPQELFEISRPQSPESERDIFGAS

T1 sequence (Q09470 whole entry): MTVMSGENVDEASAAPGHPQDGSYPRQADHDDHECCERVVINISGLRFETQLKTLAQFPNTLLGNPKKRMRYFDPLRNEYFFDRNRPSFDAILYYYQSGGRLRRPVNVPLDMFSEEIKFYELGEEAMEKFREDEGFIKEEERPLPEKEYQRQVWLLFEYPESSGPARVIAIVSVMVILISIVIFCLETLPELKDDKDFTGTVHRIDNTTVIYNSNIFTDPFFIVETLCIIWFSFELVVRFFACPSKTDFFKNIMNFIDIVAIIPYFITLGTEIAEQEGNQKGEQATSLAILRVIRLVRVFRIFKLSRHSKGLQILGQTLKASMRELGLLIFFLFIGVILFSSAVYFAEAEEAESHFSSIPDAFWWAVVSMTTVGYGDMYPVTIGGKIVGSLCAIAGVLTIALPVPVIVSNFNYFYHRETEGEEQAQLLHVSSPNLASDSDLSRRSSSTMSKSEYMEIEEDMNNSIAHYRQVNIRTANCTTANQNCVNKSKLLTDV
T2 sequence (P16389 whole entry): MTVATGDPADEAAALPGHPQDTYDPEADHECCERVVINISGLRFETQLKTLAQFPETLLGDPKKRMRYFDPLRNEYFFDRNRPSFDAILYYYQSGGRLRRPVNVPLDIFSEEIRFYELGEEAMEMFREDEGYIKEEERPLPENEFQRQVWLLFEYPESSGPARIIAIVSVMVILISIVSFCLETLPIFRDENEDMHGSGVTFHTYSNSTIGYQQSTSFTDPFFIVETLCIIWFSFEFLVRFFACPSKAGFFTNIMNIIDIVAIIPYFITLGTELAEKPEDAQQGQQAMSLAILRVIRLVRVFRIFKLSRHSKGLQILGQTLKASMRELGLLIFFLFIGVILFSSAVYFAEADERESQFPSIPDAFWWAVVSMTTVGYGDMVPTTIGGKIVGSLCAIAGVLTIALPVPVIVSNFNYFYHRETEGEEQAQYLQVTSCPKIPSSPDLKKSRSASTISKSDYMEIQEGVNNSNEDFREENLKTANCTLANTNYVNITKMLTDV

O=c1ccc2c(OCCCCOc3ccccc3)c3ccoc3cc2o1 [PAP-1 (1), PAP-1]
no significant effects: effect on KV1.1 [1] | effect on KV1.2 [2] | effect on KV1.4 [3] | effect on KV1.5 [4] | effect on KV1.6 [5] | effect on KV2.1 [6] | effect on KV4.2 [7] | effect on KV10.1 [8]
